Measured values from patent US20150141386A1, “USE OF VITAMIN K TO DECREASE ALLOGRAFT FAILURE AND PATIENT MORTALITY AFTER ORGAN TRANSPLANTATION” (VITAK B.V., priority 2012, published 2015).

What was measured:
circulating OC and MGP = test: Gla-protein carboxylation (circulating OC and MGP) after vitamin K supplementation; format: in vivo, human
Text: (§1) Recommended doses of vitamin K for treating transplant patients. […] On top of this, chronic kidney disease (CKD) patients are known to have much more pronounced vitamin K insufficiency than healthy subjects {Schlieper G et al. J. Am. Soc. Nephrol., 22 (2011) 387-395}. Therefore, the estimated range for optimal effect is dependent on the disease state and may be higher than estimated from literature data. […] This was shown in archived samples from a vitamin K1-intervention study initially described in 2003 {Braam L A et al. Am. J. Sports Med. 31 (2003) 889-895}. […] This was shown in archived samples from a vitamin K1-intervention study initially described in 2003 {Braam L A et al. Calcif. Tissue Int. 73 (2003) 21-26}. During the first 6 months of the study, circulating ucOC in the vitamin K-treated group decreased from 4.2 ng/mL to 0.8 ng/mL, whereas in the control samples a non-significant increase was observed from 4.4 ng/mL to 4.7 ng/mL. […] 109 (2007) 3279-3283}.
(§2) the optimal dose for Gla-protein carboxylation in subjects free from CKD lies between 5 and 2,000 μg/day, preferably between 50 and 1,000 μg/day, more preferably between 100 and 1,000 μg/day and most preferably between 200 and 500 μg/day for subjects with baseline levels in the normal range. […] The decreases of circulating dp-ucMGP and ucOC are shown in FIG. 10. • Lower doses were tested in a number of small studies with a significant effect at 200 μg/day and a half-maximum effect at 500 μg/day.
the optimal dose for Gla-protein carboxylation in subjects free from kidney disease lies between 5 and 3,000 μg/day, preferably between 50 and 2,000 μg/day, more preferably between 100 and 1,000 μg/day and most preferably between 200 and 500 μg/day for subjects with baseline levels in the normal range. […] Treatment should be guided by the circulating levels of dp-ucMGP, ucOC, or uncarboxylated species of any other suitable Gla-protein. • MK-n: The long-chain menaquinones are selected from the group menaquinone-7, menaquinone-8, menaquinone-9, and menaquinone-10. The long half-life times of the long-chain menaquinones make that the optimal dose for Gla-protein carboxylation is lower than for vitamin K1 {Schurgers L J et al. Biochim. Biophys. Acta 1570 (2002) 27-32}. […] A clear dose-dependent increase of MGP carboxylation was found, for instance, between 45 μg/day and 360 μg/day {Westenfeld R et al. Am. J. Kidney Dis. 59 (2012) 186-195}.

osteocalcin (OC) [1] = settings: cited from earlier work
Matrix Gla-Protein (MGP) = test: Circulating desphospho-uncarboxylated MGP (dp-ucMGP) / MGP carboxylation in vitamin K intervention studies; format: in vivo, human; settings: for circulating dp-ucMGP at start: baseline
Experimental: (§3) Blood was drawn after an 8-12 h overnight fasting period to prepare serum and citrated plasma, which were subsampled and frozen at −80° C. until use. Renal allograft function was assessed as the 24 h urinary creatinine clearance (CrCl), i.e. the 24 h urinary creatinine excretion divided by the serum creatinine concentration. Vitamin K status was assessed from plasma dp-ucMGP concentrations as described elsewhere {Cranenburg EC et al. Thromb. Haemostas. 104 (2010) 811-822} and from ucOC using a commercial dual antibody ELISA test kit (Takara Shuzo Co. Ltd., Otsu, Shiga, Japan). An in-house control serum pool was run on all ELISA plates. The primary end-points of this study were death-censored graft failure and change in kidney function. Death-censored graft failure was defined as return to dialysis therapy or re-transplant. Change in kidney function was defined as estimated GFR (eGFR) at baseline subtracted by eGFR at the last follow-up visit, divided by time from baseline to follow-up and expressed in millilitres per minute per 1.73 m^2 per year. […] Calculating a slope instead of a change in eGFR therefore will underestimate a patient's true kidney function decrease. For patients who died with a functioning graft (n=78), eGFR at follow-up was defined as kidney function at the last visit to the outpatient clinic before death, and for patients with graft failure (n=42), eGFR at follow-up was defined as the eGFR at the last visit to the outpatient clinic before starting dialysis therapy or re-transplant. There was no loss to follow-up.
as §1, §2

osteocalcin (OC) [2] = test: Circulating uncarboxylated osteocalcin (ucOC) / OC carboxylation in vitamin K intervention studies; format: in vivo, human
Experimental: as §3
as §1, with “3279-3283}. […]” for “3279-3283}.”

[3] = in vivo; cited from earlier work

Structure (SMILES): CC1=C(C/C=C(\C)CCC[C@H](C)CCC[C@H](C)CCCC(C)C)C(=O)c2ccccc2C1=O [K1, phylloquinone]
- OC and MGP carboxylation (circulating OC and MGP; K1 1,000 μg/day, healthy volunteers): substantial increase
- carboxylation of circulating OC and MGP (circulating OC and MGP; K1 10,000 μg/day, archived samples of vitamin K1-intervention study): more than 95%
- effect on the carboxylation degree of circulating OC (osteocalcin (OC) [1]; K1 140 μg/day): less pronounced but statistically significant effect
- circulating dp-ucMGP after treatment (Matrix Gla-Protein (MGP); K1 1,000 μg/day (FIG. 8)): 112 pM
- circulating dp-ucMGP at start (Matrix Gla-Protein (MGP); K1 1,000 μg/day group): 389 pM
- circulating dp-ucMGP after treatment (Matrix Gla-Protein (MGP); K1 10,000 μg/day (FIG. 7)): 23 pM
- circulating dp-ucMGP at start (Matrix Gla-Protein (MGP); K1 10,000 μg/day group): 182 pM
- circulating ucOC at start (osteocalcin (OC) [2]; K1 1,000 μg/day group, baseline): 4.2 ng/mL
- circulating ucOC after treatment (osteocalcin (OC) [2]; K1 1,000 μg/day, first 6 months of the study): 0.8 ng/mL
- circulating ucOC level at start (osteocalcin (OC) [2]; K1 10,000 μg/day group, baseline of 2-year study): 4.6 ng/mL
- circulating ucOC level after treatment (osteocalcin (OC) [2]; K1 10,000 μg/day, first 6 months of 2-year study, background = buffer values): not different from background
- circulating half-life time [3]: around 1.5 h

Structure (SMILES): CC(C)=CCC/C(C)=C/CC/C(C)=C/CC/C(C)=C/CC1=C(C)C(=O)c2ccccc2C1=O [MK-4, menaquinone-4]
- dose with half-maximum effect on Gla-protein carboxylation (circulating OC and MGP; lower doses, small studies): 500 µg/day
- dose with significant effect on Gla-protein carboxylation (circulating OC and MGP; lower doses, small studies): 200 µg/day
- carboxylation of circulating OC (osteocalcin (OC) [1]; MK-4 45,000 μg/day taken for 6 months): complete carboxylation
- circulating dp-ucMGP change (Matrix Gla-Protein (MGP); MK-4 45,000 μg/day (FIG. 9)): decrease
- circulating half-life time [3]: 1 h
